What was measured:
[1] = biological target: Urokinase-type plasminogen activator (Homo sapiens, UniProt P00749)
Caspase-1 = biological target: T1, Caspase-1 (Homo sapiens, UniProt P29466); experiment: Inhibition of caspase 1
T1 sequence (P29466 whole entry): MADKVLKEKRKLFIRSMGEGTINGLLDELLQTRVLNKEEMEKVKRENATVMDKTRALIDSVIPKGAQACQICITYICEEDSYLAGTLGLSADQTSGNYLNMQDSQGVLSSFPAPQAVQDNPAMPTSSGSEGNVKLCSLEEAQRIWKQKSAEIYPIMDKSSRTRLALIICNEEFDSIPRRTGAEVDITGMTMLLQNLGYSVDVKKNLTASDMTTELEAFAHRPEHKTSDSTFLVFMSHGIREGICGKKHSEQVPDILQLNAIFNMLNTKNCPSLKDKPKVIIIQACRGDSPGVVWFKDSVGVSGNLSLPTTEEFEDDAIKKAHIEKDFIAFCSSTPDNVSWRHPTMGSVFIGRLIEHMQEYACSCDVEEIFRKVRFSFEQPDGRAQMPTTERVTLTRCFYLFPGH

Prothrombin = Prothrombin (Homo sapiens, UniProt P00734); experiment: Inhibition of thrombin
Carbonic anhydrase 2 = Carbonic anhydrase 2 (Bos taurus, UniProt P00921)
[2] = biological target: RAC-alpha serine/threonine-protein kinase (Homo sapiens, UniProt P31749); experiment: Inhibition of protein kinase B
Aurora kinase A = biological target: T2, Aurora kinase A (Homo sapiens, UniProt O14965)
T2 sequence (O14965 whole entry): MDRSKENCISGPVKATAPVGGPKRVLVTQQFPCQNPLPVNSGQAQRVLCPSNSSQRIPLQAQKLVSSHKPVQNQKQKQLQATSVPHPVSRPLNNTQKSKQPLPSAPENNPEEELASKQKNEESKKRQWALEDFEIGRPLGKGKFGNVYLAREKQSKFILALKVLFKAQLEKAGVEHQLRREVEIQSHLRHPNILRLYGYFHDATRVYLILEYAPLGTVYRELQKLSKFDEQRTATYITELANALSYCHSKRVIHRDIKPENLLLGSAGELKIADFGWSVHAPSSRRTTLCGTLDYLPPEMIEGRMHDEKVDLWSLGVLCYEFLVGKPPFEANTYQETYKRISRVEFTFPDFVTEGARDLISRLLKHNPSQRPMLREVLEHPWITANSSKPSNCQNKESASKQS

[3] = biological target: Heat shock protein HSP 90-beta (Homo sapiens, UniProt P08238)
[4] = biological target: T3, Queuine tRNA-ribosyltransferase catalytic subunit 1 (Homo sapiens, UniProt Q9BXR0)
T3 sequence (Q9BXR0 whole entry): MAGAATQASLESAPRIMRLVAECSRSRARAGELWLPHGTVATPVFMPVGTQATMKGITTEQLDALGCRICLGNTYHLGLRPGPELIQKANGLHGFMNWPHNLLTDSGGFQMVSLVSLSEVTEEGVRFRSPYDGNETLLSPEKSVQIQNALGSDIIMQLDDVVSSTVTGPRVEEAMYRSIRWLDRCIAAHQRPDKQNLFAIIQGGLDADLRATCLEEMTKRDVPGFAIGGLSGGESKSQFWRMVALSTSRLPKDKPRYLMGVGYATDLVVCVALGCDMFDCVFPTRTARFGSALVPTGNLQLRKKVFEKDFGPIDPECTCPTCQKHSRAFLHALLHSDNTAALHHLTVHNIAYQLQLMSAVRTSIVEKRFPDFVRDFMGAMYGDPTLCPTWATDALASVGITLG

[5] = Inhibition of PDE4

Carbonic anhydrase 2, sequence (P00921 whole entry): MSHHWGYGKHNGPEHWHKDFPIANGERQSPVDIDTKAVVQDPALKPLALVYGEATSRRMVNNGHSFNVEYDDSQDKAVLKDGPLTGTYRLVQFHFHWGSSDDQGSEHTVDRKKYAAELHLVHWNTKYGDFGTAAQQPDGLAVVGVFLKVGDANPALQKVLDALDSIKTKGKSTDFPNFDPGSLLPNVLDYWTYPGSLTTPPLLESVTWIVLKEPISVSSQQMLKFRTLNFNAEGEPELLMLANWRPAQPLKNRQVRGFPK
Heat shock protein HSP 90-beta, sequence (P08238 whole entry): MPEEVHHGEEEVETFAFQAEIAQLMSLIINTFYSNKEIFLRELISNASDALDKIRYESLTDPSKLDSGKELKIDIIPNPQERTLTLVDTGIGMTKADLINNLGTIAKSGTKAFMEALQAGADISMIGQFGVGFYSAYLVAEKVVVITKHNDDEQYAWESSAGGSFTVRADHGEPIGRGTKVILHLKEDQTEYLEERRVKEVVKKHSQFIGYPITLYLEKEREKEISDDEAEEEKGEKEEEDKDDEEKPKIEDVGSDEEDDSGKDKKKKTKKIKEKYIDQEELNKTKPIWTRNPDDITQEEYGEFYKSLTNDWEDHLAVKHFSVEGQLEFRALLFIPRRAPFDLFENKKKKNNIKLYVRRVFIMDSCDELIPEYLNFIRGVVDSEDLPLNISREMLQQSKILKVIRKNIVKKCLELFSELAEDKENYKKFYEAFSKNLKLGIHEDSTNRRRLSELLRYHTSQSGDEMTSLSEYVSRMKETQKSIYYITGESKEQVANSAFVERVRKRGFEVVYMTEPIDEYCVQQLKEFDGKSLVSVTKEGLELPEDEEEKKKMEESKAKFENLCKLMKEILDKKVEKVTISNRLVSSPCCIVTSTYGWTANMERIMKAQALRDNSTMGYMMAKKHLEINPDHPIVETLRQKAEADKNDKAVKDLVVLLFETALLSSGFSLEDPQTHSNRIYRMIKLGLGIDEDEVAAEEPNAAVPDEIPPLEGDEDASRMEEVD
RAC-alpha serine/threonine-protein kinase, sequence (P31749 whole entry): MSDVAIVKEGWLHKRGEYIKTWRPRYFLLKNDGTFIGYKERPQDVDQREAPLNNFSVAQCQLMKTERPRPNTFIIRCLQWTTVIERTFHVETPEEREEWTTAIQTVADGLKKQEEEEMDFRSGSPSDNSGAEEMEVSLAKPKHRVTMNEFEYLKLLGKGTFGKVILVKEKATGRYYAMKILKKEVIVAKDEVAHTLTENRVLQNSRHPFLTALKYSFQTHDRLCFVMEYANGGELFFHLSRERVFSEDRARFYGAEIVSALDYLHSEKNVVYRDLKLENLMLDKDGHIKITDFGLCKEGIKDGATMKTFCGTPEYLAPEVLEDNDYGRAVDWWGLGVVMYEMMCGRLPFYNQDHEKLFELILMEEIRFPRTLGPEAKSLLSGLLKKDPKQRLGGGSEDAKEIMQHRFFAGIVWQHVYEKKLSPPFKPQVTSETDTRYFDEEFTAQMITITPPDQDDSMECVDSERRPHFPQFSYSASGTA

In the case of `Nc1nc2cc(O)ccc2[nH]1`, the IC50 [1] is reported as 200000 nM.
Work on `O=C[C@H](CC(=O)O)NC(=O)c1ccc(CNC(=O)c2ccc(Nc3cnc4ccccc4n3)cc2)nc1` yielded an IC50 (Caspase-1) of 5 nM.
`COc1ccc(S(=O)(=O)NC[C@@H](O)[C@H](Cc2ccccc2)NCc2cc(Cl)ccc2-n2cnnn2)cc1` gave an IC50 (Prothrombin) of 4 nM.
Molecule `C#Cc1ccc(S(N)(=O)=O)cc1` has a Kd (Carbonic anhydrase 2) of 37 nM.
With `O=C[C@H](CC(=O)O)NC(=O)CCCCCNC(=O)c1ccc(Nc2cnc3ccccc3n2)cc1` the IC50 (Caspase-1) was 190 nM.
`c1ccc(-c2cn[nH]c2)cc1` gave an IC50 [2] of 135000 nM.
For `COc1cc2[nH]c3ncnc(N4CCN(C(=S)Nc5ccc(S(=O)(=O)Nc6ncccn6)cc5)CC4)c3c2cc1OC`, the IC50 (Aurora kinase A) was 94 nM.
For `COc1cc2[nH]c3ncnc(Cl)c3c2cc1OC`, the IC50 (Aurora kinase A) was 3000 nM.
In the case of `O=C1OCC/C1=C\Nc1ccccc1`, the Kd [3] is reported as 150000 nM.
For `COc1ccc(CCc2c3nc[nH]c3cc3c(=O)[nH]c(N)nc23)cc1`, the Ki [4] was 3700 nM.
`CC(C)[C@@H](C(=O)N1CC2CCC(CC2)C1)n1cc(-c2ccc(S(N)(=O)=O)cc2)nn1` gave a Kd (Carbonic anhydrase 2) of 0.2 nM.
`Cc1cc(C#Cc2ccccc2/C=N/N2CCOC2=O)nc(N)n1` showed a Kd [3] of 4000 nM.
Molecule `CCOC(=O)c1c(C)nn(-c2ccccc2Cl)c1C` has an IC50 [5] of 19 nM.
`Nc1nc2ccccc2c(=O)[nH]1` showed a Ki [4] of 2100 nM.
With `Nc1ccc(S(=O)(=O)Nc2ncccn2)cc1` [SULFADIAZINE] the IC50 (Aurora kinase A) was 21000 nM.

From ChEMBL document CHEMBL1157388, “Recent developments in fragment-based drug discovery” (J Med Chem, 2008)
